Reference: PMC10889091, “Isolation, Characterization, Genome Annotation, and Evaluation of Tyrosinase Inhibitory Activity in Secondary Metabolites of Paenibacillus sp. JNUCC32: A Comprehensive Analysis through Molecular Docking and Molecular Dynamics Simulation” (International Journal of Molecular Sciences, 2024)

Target: T1, mushroom tyrosinase (Agaricus bisporus, UniProt C7FF04)
T1 construct: gene PPO3
Assay: mushroom tyrosinase (Sigma T3824) assay with L-tyrosine, absorbance at […] nm
Format: biochemical

T1 sequence (C7FF04 2-392): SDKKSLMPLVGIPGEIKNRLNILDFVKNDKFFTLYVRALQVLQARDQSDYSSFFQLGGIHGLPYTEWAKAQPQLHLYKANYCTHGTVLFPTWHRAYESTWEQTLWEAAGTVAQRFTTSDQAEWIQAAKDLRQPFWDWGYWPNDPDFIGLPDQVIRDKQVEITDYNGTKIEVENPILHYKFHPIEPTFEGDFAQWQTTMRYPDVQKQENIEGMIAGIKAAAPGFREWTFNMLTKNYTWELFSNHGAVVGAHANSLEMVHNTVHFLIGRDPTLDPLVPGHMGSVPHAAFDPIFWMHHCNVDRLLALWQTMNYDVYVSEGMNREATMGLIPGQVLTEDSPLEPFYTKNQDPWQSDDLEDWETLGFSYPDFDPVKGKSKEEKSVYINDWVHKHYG

Work on `OCCc1c[nH]c2ccccc12` [compound 1, tryptophol] yielded an IC50 of 999 µM.
